# From patent US9951335B2, “Compositions and methods for treating otitis media and other conditions with inhibitors of CYLD” (Georgia State University Research Foundation, Inc., priority 2012, dated 2018)
# Read-outs that look alike come from different tables or passages of the source. Residues, ends and D or L forms follow the SMILES beside them. *: point of attachment. Cbz = O=C(OCc1ccccc1)*
# Assays:
# Smad3 [1] = experiment: Smad3 protein expression in cells incubated with Akt or PI3K inhibitor (immunoblotting); assay type: cell-based, mouse; settings: 20 μM; MEF cells from Cyld+/+ and Cyld−/− mice (FIG. 5d), cells (FIG. 5e)
# Description: FIG. 5 illustrates that CYLD decreases Smad3 stability by inhibiting Akt. (a) MEF cells from Cyld+/+ and Cyld−/− mice were transfected with siCon or siAkt1/2 and analysed by immunoblotting with the indicated antibodies. (b) SBE-promoter activity was determined in siCYLD-transfected A549 cells with or without siAkt co-transfection and stimulated with TGF-β. (c) SBE-promoter activity was determined in MEFs from Cyld+/+ and Cyld−/− mice pretreated with Akt inhibitor and stimulated with TGF-β. (d) MEF cells from Cyld+/+ and Cyld−/− mice were incubated with Akt inhibitor (20 μM), and cell lysates were analysed by immunoblotting with the indicated antibodies. (e) Cells were incubated with Akt inhibitor (20 μM) or LY294002 (20 μM), and cell lysates were analysed by immunoblotting with the indicated antibodies. (f) Lysates from cells transfected with HA-CYLD and Flag-Akt were immunoprecipitated with anti-CYLD antibody (upper panel) or anti-Akt antibody (lower panel), and interacting proteins were analysed by immunoblotting. […]
# Western blot, immunoprecipitation and ubiquitination experiments were performed as follows. […] Immunoprecipitates were then suspended in a sample buffer, separated on 8% SDS-PAGE, transferred to polyvinylidine difluoride membrane, and detected by immunoblot analysis, as described above. […]
# TGF-β-signalling = experiment: TGF-β-induced SBE-promoter activity in mouse MEF cells; assay type: cell-based; settings: Cyld−/− MEFs pretreated with inhibitor
# Description: (§1) The expression plasmids Flag-WT-CYLD, HA-WT-CYLD, Flag-H/N-CYLD, HA-C/S-CYLD, Flag-WT-Smad3, C/A-TβRI, and the reporter plasmids SBE-Luc, PAI-1-Luc, and NF-κB-Luc were previously described. Flag-WT-Akt1, pRK5-HA-Ub WT, pRK5-HA-Ub K63, and pRK5-HA-Ub K48 were from Addgene, and K to R mutants of Akt were generated with WT-Akt1 using QuickChange XL Site-Directed Mutagenesis kit (Stratagene). All transient transfections were carried out using TransIT-LT1 reagent (Minis) or Lipofectamine (Invitrogen) according to manufacturers' instructions.
# Smad3 [2] = experiment: Smad3 protein level in transfected cells by immunoblotting; assay type: cell-based, human
# Description: Western blot, immunoprecipitation and ubiquitination experiments were performed as follows. Western blots were performed using whole-cell extracts, separated on 8 or 10% SDS-PAGE gels, and transferred to polyvinylidine di& uoride membranes. The membrane was blocked with a solution of PBS containing 0.1% Tween 20 (PBS-T) and 5% BSA. The membrane was then incubated in a 1:2,000 dilution of a primary antibody in 5% BSA-PBS-T. After three washes in PBS-T, the membrane was incubated with 1:5,000 dilution of the corresponding secondary antibody in 3% non-fact skim milk-PBS-T. Respective proteins were visualized by using enhanced chemiluminescence detection reagents, according to the manufacturer's instructions. To conduct immunoprecipitation analysis, cell lysates were incubated with 1 μg of primary antibodies overnight, at 4° C., followed by 2-h incubation with protein A/G-agarose beads (Invitrogen). Immunoprecipitates were then suspended in a sample buffer, separated on 8% SDS-PAGE, transferred to polyvinylidine difluoride membrane, and detected by immunoblot analysis, as described above. […]
# PAI-1 = experiment: TGF-β-induced PAI-1 expression (promoter activity, mRNA) in human cells; assay type: cell-based; settings: WT-CYLD-transfected cells pre-treated with MG-132; mRNA
# Description: Total RNA was isolated using TRIzol reagent following the manufacturer's instructions. Synthesis of complementary DNA from total RNA was performed with MultiScribe reverse transcriptase. Real-time quantitative PCR was performed using an ABI 7500 Sequence Detection System (Applied Biosystems). Relative quantities of mRNAs were calculated using the comparative threshold cycle method and normalized using human and mouse glyceraldehyde-3-phosphate dehydrogenase as an endogenous control. The primer sequences for mouse COL1A2, COL3A1, CTGF and PAI-1, and human PAI-1, CHIP, and Smad3 are as follows. Mouse CTGF: 5′-[…]-3′ (SEQ ID NO:1) and 5′-[…]-3′ (SEQ ID NO:2); mouse COL1A2: 5′-[…]-3′ (SEQ ID NO:3) and 5′-[…]-3′ (SEQ ID NO:4); mouse COL3A1: 5′-[…]-3′ (SEQ ID NO:5) and 5′-[…]-3′ (SEQ ID NO:6); mouse PAI-1: 5′-[…]-3′ (SEQ ID NO:7) and 5′-[…]-3′ (SEQ ID NO:8); human PAI-1: 5′-[…]-3′ (SEQ ID NO:9) and 5′-[…]-3′ (SEQ ID NO:10); human CHIP: 5′-[…]-3′ (SEQ ID NO:11) and 5′-[…]-3′ (SEQ ID NO:12).
# as §1
# CYLD [3] = experiment: NTHi-induced up-regulation of CYLD in epithelial cells (Q-PCR, Western blot); assay type: cell-based, human; settings: for NTHi-induced up-regulation of CYLD at both mRNA and protein levels: HMEEC, A549 and primary NHBE cells, conventional and air-liquid-interface culture
# From the text: (§2) Phosphodiesterases (PDEs) have been recognized as therapeutic targets. […] For this reason, we initially sought to determine if PDEs act as key negative regulator for CYLD.
# lung fibrosis = experiment: S. pneumoniae-induced lung fibrosis in Cyld−/− mice (H&E, Masson's trichrome); assay type: in vivo, mouse
# Description: Cyld−/− mice were generated by homologous recombination as follows. The targeting construct was designed to disrupt the exons 2 and 3 with an IRES-LacZ/MC1-Neo cassette. The targeting plasmid was linearized and transfected into embryonic stem cells of a 129/S. Homologously recombined embryonic stem cells were injected into blastocysts that were subsequently transferred to foster mothers, to generate chimeric progeny. Generated chimeric progeny were backcrossed to C57BL/6J, and germline transmission was confirmed by PCR with tail DNA. Homozygous knockout of Cyld gene was confirmed by mRNA detection by RT-PCR and CYLD protein detection by western blot analysis in MEF cells and lung tissues. For S. pneumoniae-induced severe infections in WT and Cyld−/− mice, anaesthetized mice were intratracheally (i.t.) inoculated with live S. pneumoniae (5×10^7 CFU per mouse). Surviving mice from severe pneumonia were then sacrificed 2 weeks post S. pneumoniae infection for histopathological analysis. For TGF-β inoculation, anesthetized WT and Cyld−/− mice were i.t. inoculated with TGF-β (25-100 ng per mouse) for 6 hours, and lung tissues were then subjected to total mRNA and protein extraction. […]
# PDE4B / PDE4D = settings: known property, cited from earlier work
# [4] = test system: NTHi-induced inflammation; experiment: NTHi-induced inflammation in epithelial cells (NF-κB activation, IL-1β, IL-8, TNF-α; Q-PCR, ELISA); assay type: cell-based, human; settings: for NTHi-induced inflammatory response / concentration at which NTHi-induced inflammatory response was suppressed: HMEEC cell; for NTHi-induced inflammatory response: roflumilast at 1 μM
# From the text: We next determined if PDE4 inhibition suppresses NTHi-induced inflammation. […] Despite showing that inhibiting PDE4 enhanced up-regulation of CYLD and suppressed NTHi-induced inflammation, it was still unclear whether inhibiting PDE4 suppressed inflammation by up-regulating CYLD or by inhibiting a positive regulator of inflammation (e.g., IKKβ).
# NF-κB = NF-κB activation induced by overexpressing constitutively active IKKβ or wild-type p65; assay type: cell-based
# From the text: We next determined if PDE4 inhibitors may also suppress inflammation via directly inhibiting IKKβ, the key positive regulator of NF-κB-dependent inflammation.
# CYLD [5] = experiment: CYLD up-regulation in the middle ear of mouse OM model (Q-PCR, IF staining); assay type: in vivo
# From the text: as §2
# Ototopical administration works effectively when the eardrum is perforated either pathologically or surgically by tympanostomy tube insertion. Thus, we first determined if ototopical administration of rolipram up-regulates CYLD and suppresses inflammation in the middle ear of mice post NTHi inoculation.
# [6] = test system: NTHi-induced inflammation; experiment: NTHi-induced middle ear inflammation in mouse OM model (cytokines, otoscopy, histopathology); assay type: in vivo
# [7] = ototopical pre- and post-inoculation administration, mouse OM model
structure (smiles),measurement,setting,value
"CCCCCCCCCCCCCCCCCCOCC(COC(=O)OC1C(O)C(O)C(O)C(CO)C1O)OC [Akt inhibitor, 1L6-Hydroxymethyl-chiro-inositol-2(R)-2-O-methyl-3-O-octadecyl-sn-glycerocarbonate]",Smad3 protein expression,Smad3 [1],markedly reduced
same,enhanced TGF-β-induced SBE promoter activity,TGF-β-signalling,inhibited
CC(C)C[C@@H](C=O)NC(=O)[C@H](CC(C)C)NC(=O)[C@H](CC(C)C)NC(=O)OCc1ccccc1 [MG132] (Cbz-Leu-Leu-Leu-aldehyde),WT-CYLD-induced decrease in Smad3 protein level,"Smad3 [2]; WT-CYLD-transfected cells, 20 μM",reversed
same,WT-CYLD-induced decrease in TGF-β-induced PAI-1 expression,PAI-1,reversed
CCCCOc1cc(CC2CNC(=O)N2)ccc1OC (centres unmarked) [Ro20-1724],NTHi-induced up-regulation of CYLD at both mRNA and protein levels,CYLD [3],markedly enhanced
C[S+]([O-])c1ccc(-c2nc(-c3ccc(F)cc3)c(-c3ccncc3)[nH]2)cc1 (centres unmarked) [SB203580],lung fibrosis in Cyld−/− mice,"lung fibrosis; S. pneumoniae infection, 20 mg kg−1 intraperitoneal 1-2 hours before inoculation",did not affect
Cn1cc(C2=C(c3ccc(Cl)cc3Cl)C(=O)NC2=O)c2ccccc21 [SB216763],WT-CYLD-induced Smad3 decrease,"Smad3 [2]; A549 cells, 5 μM for 12 h",reversed
NC(=O)c1ccc(-c2nc(-c3ccccn3)c(-c3ccc4c(c3)OCO4)[nH]2)cc1 [SB431542],lung fibrosis in S. pneumoniae-inoculated Cyld−/− lungs,"lung fibrosis; 10 mg per kg body weight intraperitoneal, 2-weeks post infection",inhibited
COc1ccc([C@]2(C#N)CC[C@@H](C(=O)O)CC2)cc1OC1CCCC1 [cilomilast],PDE4 subfamily selectivity (PDE4B versus PDE4D),PDE4B / PDE4D,more PDE4D selective
same,NTHi-induced inflammatory response,[4],no significant inhibitory effect
O=C(Nc1c(Cl)cncc1Cl)c1ccc(OC(F)F)c(OCC2CC2)c1 [roflumilast],CYLD expression,CYLD [3],enhanced
same,PDE4 subfamily selectivity (PDE4B versus PDE4D),PDE4B / PDE4D,more selective for PDE4B than for PDE4D
same,PDE4 subfamily selectivity (PDE4B versus PDE4D),PDE4B / PDE4D; listed as Roflumilast,more specific inhibitor for PDE4B
same,concentration at which NTHi-induced inflammatory response was suppressed,[4],1 µM
same,NTHi-induced inflammatory response,[4],markedly suppressed
COc1ccc(C2CNC(=O)C2)cc1OC1CCCC1 (centres unmarked) [rolipram],activation of NF-κB induced by overexpressing constitutively active IKKβ or wild-type p65,NF-κB,did not significantly inhibit
same,NTHi-induced up-regulation of CYLD at both mRNA and protein levels,CYLD [3],markedly enhanced
same,NTHi-induced mRNA expression of these cytokines in CYLD-deficient cells,[4]; CYLD-deficient cells,failed to inhibit
same,concentration at which NTHi-induced inflammatory response was suppressed,[4],10 µM
same,NTHi-induced NF-κB activation,"[4]; HMEEC, A549, primary NHBE cells",potently inhibited
same,"NTHi-induced up-regulation of IL-1β, IL-8 and TNF-α in CYLD-depleted cells","[4]; HMEEC, A549, primary NHBE cells, CYLD depleted with siRNA CYLD",no longer inhibited
same,"NTHi-induced up-regulation of pro-inflammatory mediators IL-1β, IL-8 and TNF-α at the mRNA and protein levels","[4]; HMEEC, A549, primary NHBE cells, Q-PCR and ELISA",potently inhibited
same,up-regulation of CYLD at the mRNA level and protein level in the middle ear mucosa,"CYLD [5]; mouse model of OM, Q-PCR and IF staining",enhanced
same,CYLD expression in the middle ear,CYLD [5]; [7],up-regulated
same,"NTHi-induced otoscopic pathological changes of OM (congestion and swelling of tympanic membranes, mucous effusion)","[6]; i.p. administration, NTHi-inoculated mice, otoscopic examination",inhibited
same,middle ear mucosal thickening and PMN infiltration in the middle ear mucosa,"[6]; i.p. administration, histopathologic analysis",inhibited
same,"NTHi-induced up-regulation of IL-1β and MIP-2, middle ear mucosal thickening and PMN infiltration","[6]; i.p. administration, mouse OM model, CYLD-deficiency context",no longer inhibited
same,NTHi-induced up-regulation of the proinflammatory mediators in the middle ear of mouse,[6]; mouse,inhibited
same,middle ear inflammation,[6]; [7],suppressed
